# Laboratory results taken from patent publication US20260028410A1, “TREATMENT OF GRAFT VERSUS HOST DISEASES USING ANTI-CD122 ANTIBODY” (FORTE SUBSIDIARY, INC., priority 2023, published 2026).
# Experiments:
# [1] = tested on: human T and NK cell-mediated aGvHD (xenograft GvHD mouse model); assay: Acute GvHD xenograft mouse model, single vs combination therapy with Antibody 2 or Antibody 3 (Example 5), survival; assay type: in vivo, NCG-hIL-15 mice transplanted with human PBMCs
# Protocol: (§1) A xenograft GvHD mouse model was utilized to study human T and NK cell-mediated aGvHD and the therapeutic effects of anti-CD122 antibody treatment in single or combination therapy approaches. Female NCG-hIL-15 mice were irradiated at a dosage of 100 cGy on Day 1 of the protocol and human peripheral blood mononuclear cells (PBMCs) were transplanted via injection at a dosage of 1×10^7 cells/200 μL/mice via IV administration into the irradiated mice according to the same xenograft GvHD mouse model design as in Example 1.
# Treatment according to 3 different grouping of animals was begun on Day 5 following transplant, as shown in the study design of FIG. 5. Groups of a sufficient number of mice were used for each test category in order to evaluate a significant difference between test groups. A single treatment group, Group #1, received ruxolitinib (at a dosage of 60 mpk) twice-daily by oral administration beginning on Day 5 and ending on Day 18. Days of treatment are D5, D6, D7, D8, D9, D10, D11, D12, D13, D14, D15, D16, D17, and D18. A combination therapy group, Group #2, received ruxolitinib (at a dosage of 60 mpk) twice-daily by oral administration beginning on Day 5 and ending on Day 18. Days of treatment using ruxolitinib in Group #2 were D5, D6, D7, D8, D9, D10, D1I, D12, D13, D14, D15, D16, D17, and D18. Group #2 animals separately receive anti-CD122 antibody therapy (at a dosage of 75 mpk) once-daily by IP administration. Days of treatment using anti-CD122 antibody in Group #2 were D5, D6, D7, D8, D9, D10, D11, D12, D13, D14, D15, D16, D17, and D18. A vehicle group, Group #3, served as a negative control with vehicle-only administered following transplant received twice daily oral placebo (vehicle only) beginning on Day 5 and ending on Day 18. Days of oral placebo treatment were D5, D6, D7, D8, D9, D10, D11, D12, D13, D14, D15, D16, D17, and D18. […]
# (§2) Day 18 was the end of study day for all treatment groups. Animals from all treatment groups were assessed daily beginning on Day 1 and ending on Day 18 for survival following transplant. […]
# [2] = tested on: human T and NK cell-mediated aGvHD (xenograft GvHD mouse model); assay: Acute GvHD xenograft mouse model, dose-ranging of Antibody 1 (Example 1), survival; assay type: in vivo, NCG-hIL-15 mice transplanted with human PBMCs; details: Day 14; 60 mcg each twice daily oral D5-D14; n=10
# Protocol: A xenograft GvHD mouse model was utilized to study human T and NK cell-mediated aGvHD and the therapeutic effects of anti-CD122 antibody treatment therein. Female NCG-hIL-15 mice were irradiated at a dosage of 100 cGy on Day 1 of the protocol and human peripheral blood mononuclear cells (PBMCs) were transplanted via injection at a dosage of 1×10^7 cells/200 μL/mice via IV administration into the irradiated mice. PBMCs are immune cells that originate in the bone marrow and are secreted into the peripheral circulation forming critical components of the immune system. PBMCs are involved in humoral and cell-mediated immune function. […] Groups of 10 mice were used for each test category. A vehicle group (n=10) served as a negative control with no treatment administered (only a combination of vehicle treatments) following transplant. A positive control group (n=10) of mice treated with 60 mcg each of ruxolitinib twice daily by oral administration was included in the study design. Ruxolitinib-treated animals were treated via oral administration of ruxolitinib twice daily on D5, D6, D7, D8, D9, D10, D11, D12, D13, and D14. Three groups of Antibody 1 treated animals (n=10 for each group) were tested using a) 75 milligram per kilogram of body weight (mpk) of antibody, b) 125 mpk of antibody, and c) 175 mpk of antibody, respectively. […]
# [3] = tested on: human T and NK cell-mediated aGvHD (xenograft GvHD mouse model); assay: Acute GvHD xenograft mouse model, single vs combination therapy with Antibody 1 (Example 2), survival; assay type: in vivo, NCG-hIL-15 mice transplanted with human PBMCs; details: ruxolitinib 60 mpk twice-daily oral, Antibody 1 75 mpk once-daily IP, D5-D18
# Protocol: as §1
# Treatment according to 3 different grouping of animals was begun on Day 5 following transplant, as shown in the study design of FIG. 3. Groups of 10 mice were used for each test category. A single treatment group, Group #1, (n=10) received ruxolitinib (at a dosage of 60 mpk) twice-daily by oral administration beginning on Day 5 and ending on Day 18. Days of treatment were D5, D6, D7, D8, D9, D10, D11, D12, D13, D14, D15, D16, D17, and D18. A combination therapy group, Group #2, (n=10) received ruxolitinib (at a dosage of 60 mpk) twice-daily by oral administration beginning on Day 5 and ending on Day 18. Days of treatment using ruxolitinib in Group #2 were D5, D6, D7, D8, D9, D10, D11, D12, D13, D14, D15, D16, D17, and D18. Group #2 animals separately received treatment with Antibody 1 (anti-CD122 antibody as described herein) at a dosage of 75 mpk once-daily by IP administration. Days of treatment using Antibody 1 in Group #2 were D5, D6, D7, D8, D9, D10, D11, D12, D13, D14, D15, D16, D17, and D18. A vehicle group, Group #3, (n=10) served as a negative control with vehicle-only administered following transplant received twice daily oral placebo (vehicle only) beginning on Day 5 and ending on Day 18. Days of oral placebo treatment were D5, D6, D7, D8, D9, D10, D11, D12, D13, D14, D15, D16, D17, and D18. […]
# as §2
# [4] = molecular target: high-affinity heterotrimer IL-αβγ receptor; details: ligand affinity for IL-αβγ receptor combinations; cited from earlier work
# [5] = molecular target: T1, Intermediate-affinity heterodimeric IL-βγ receptor (Homo sapiens, UniProt P14784+P31785); details: ligand affinity for IL-βγ receptor (CD122/CD132); cited from earlier work
# T1 sequence (P14784 27-551): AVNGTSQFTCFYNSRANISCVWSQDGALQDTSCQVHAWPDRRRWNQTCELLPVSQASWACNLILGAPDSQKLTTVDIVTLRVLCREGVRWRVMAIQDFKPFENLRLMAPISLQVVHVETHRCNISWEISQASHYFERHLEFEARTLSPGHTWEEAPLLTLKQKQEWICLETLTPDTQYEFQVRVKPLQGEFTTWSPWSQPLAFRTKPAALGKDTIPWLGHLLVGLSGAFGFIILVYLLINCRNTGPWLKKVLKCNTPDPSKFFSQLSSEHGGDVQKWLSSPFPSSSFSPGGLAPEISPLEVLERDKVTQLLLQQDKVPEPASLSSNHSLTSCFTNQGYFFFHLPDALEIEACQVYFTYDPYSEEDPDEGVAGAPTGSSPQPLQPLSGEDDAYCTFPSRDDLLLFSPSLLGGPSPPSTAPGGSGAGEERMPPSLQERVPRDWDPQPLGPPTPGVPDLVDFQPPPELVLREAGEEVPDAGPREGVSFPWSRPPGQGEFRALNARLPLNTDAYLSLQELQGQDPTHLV
# T1 sequence (P31785 23-369): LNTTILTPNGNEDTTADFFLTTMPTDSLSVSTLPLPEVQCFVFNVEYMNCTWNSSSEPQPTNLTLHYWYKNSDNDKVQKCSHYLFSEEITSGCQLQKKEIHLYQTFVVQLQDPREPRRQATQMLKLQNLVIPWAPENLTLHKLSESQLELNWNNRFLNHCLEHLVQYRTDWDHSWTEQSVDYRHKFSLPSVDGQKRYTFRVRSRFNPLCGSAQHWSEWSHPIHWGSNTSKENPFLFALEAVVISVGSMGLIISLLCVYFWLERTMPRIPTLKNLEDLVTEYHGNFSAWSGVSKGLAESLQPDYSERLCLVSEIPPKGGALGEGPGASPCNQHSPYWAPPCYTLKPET
Compound,"survival on Day 18 ([1]; Day 18, ruxolitinib 60 mpk twice-daily oral, anti-CD122 antibody 75 mpk once-daily IP, D5-D18, n=10) [%]","Median survival ([1]; aGvHD xenograft mice, treatment Day 5 to Day 18 (ruxolitinib 60 mpk twice-daily oral; anti-CD122 antibody 75 mpk once-daily IP), followed to Day 18) [days]","Average survival time ([1]; aGvHD xenograft mice, treatment Day 5 to Day 18 (ruxolitinib 60 mpk twice-daily oral; anti-CD122 antibody 75 mpk once-daily IP), followed to Day 18, Mean ± SD) [days]",survival at study conclusion [2] [%],"survival rate at the end of the study ([3]; Day 18, n=10) [%]","Average survival time ([3]; up to Day 18, Mean ± SD) [days]",Median survival ([3]; up to Day 18) [days],Kd [4] [nM],Kd [5] [nM]
N#CC[C@H](C1CCCC1)n1cc(-c2ncnc3[nH]ccc23)cn1 [ruxolitinib],0,14,13.20 ± 0.93,60,30,16.3 ± 3.4,17.5,,
IL15: cytokine interleukin 15,,,,,,,,~0.01,~1
